The text below walks through data of the NIST ThermoML archive (doi:10.1016/j.jct.2015.05.020).

The conditions of data set [1]: Crystal; visual observation.
The nature of data set [2]: Molar enthalpy of transition or fusion. As to conditions: Crystal; DSC.

Numbers after ± are expanded uncertainties.

As to `COc1cc(C=O)ccc1O` [vanillin], in data set [1], the Normal melting temperature came to 81.60 ± 1.1 °C. For the same compound, in data set [2], the “Molar enthalpy of transition or fusion” value amounted to 5.92 ± 0.406 kcal/mol.
